The text below walks through data of patent publication US10611760B2, “Therapeutic compounds as inhibitors of the orexin-1 receptor” (C4X Discovery Limited, priority 2014, dated 2020).

Some results are limits rather than exact numbers.

Assay type in all cases: cell-based
The target in test [1] is T1, orexin-1 (Homo sapiens, UniProt O43613).
T1 construct: expressed in transfected cells
T1 sequence (O43613 1-425): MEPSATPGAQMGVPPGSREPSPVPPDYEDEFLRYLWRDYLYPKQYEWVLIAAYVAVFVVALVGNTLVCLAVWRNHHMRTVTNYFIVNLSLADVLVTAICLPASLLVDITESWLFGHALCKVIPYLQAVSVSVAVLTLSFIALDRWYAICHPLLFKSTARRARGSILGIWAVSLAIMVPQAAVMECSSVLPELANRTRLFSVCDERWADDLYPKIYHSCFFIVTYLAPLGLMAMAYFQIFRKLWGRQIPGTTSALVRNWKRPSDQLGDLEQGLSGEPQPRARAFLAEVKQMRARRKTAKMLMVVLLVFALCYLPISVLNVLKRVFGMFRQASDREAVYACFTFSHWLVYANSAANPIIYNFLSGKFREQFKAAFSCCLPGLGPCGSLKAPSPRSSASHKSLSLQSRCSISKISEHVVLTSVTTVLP
As to the kind of experiment: Antagonism against orexin-1 in the aforementioned (above identified) intracellular calcium assays. The source says: Antagonism against orexin receptors has been measured for each example compound using at least one of the following procedures. […] These values may fluctuate depending on the daily cellular assay performance. Fluctuations of this kind are known to those skilled in the art. […] Data highlighted with an asterix (*) is derived from a single experiment, otherwise all data reported is an average of at least two independant replicate experiments. […]
For orientation: Calcium assays in cells follow changes in intracellular calcium, usually with a dye or a luminescent sensor.

Test [2] addresses T2, hOX1R (Homo sapiens, UniProt O43613).
T2 sequence (O43613 1-425): T1 sequence (O43613 1-425)
As to the kind of experiment: Intracellular calcium measurements using stable-replicating cells, Method B (CHO cells, FLIPR Tetra), OX1. The note with it: orexin A at EC75, read-out: pIC50 OX1 (converted).

In test [3] the target is T2, hOX1R. As to the kind of experiment: Intracellular calcium measurements using stable-replicating cells, Method A, OX1. The settings on record: orexin-A at 4×EC50, * = single experiment, read-out: pIC50 OX1 (converted). How it is done:
(§1) Intracellular Calcium Measurements Using Stable-replicating Cells:
(§2) Method A (Table 2): Test compounds are prepared as 10 mM stock solutions in DMSO, warmed briefly for 20 seconds at 37° C. and serially diluted in half log concentrations with DMSO followed by dilution with assay buffer (HBSS (Sigma-Aldrich, H8264) containing 10 mM HEPES (Invitrogen, 15630080) and pH adjusted to 7.4) to a top final assay concentration of 10 μM.
(§3) Human OX1 (CT-A674) and human OX2 (CT-A675) receptor-expressing stable-replicating cells are grown in a culture medium, Ham F12 (Invitrogen, 31765-035) containing 10% fetal bovine serum (Invitrogen, 16000044), 1% non-essential amino acids (Invitrogen, 11140-050), 100 U/mL Penicillin/Streptomycin (Invitrogen, 15140-122) and G418 (Invitrogen, 11811023) at a concentration of 400 μg/mL. The cells are seeded at a density of 7,000 cells/well into black, clear bottom 384-well plates (Corning, 3683) and incubated at 37° C. in air supplemented with 5% CO2 for 16 hrs.
(§4) Loading dye (25 μL/well), prepared from a FLIPR Calcium 6 Assay kit (Molecular Devices, R8190-Explorer) according to the manufacturer's instructions, and the serially diluted test compounds (10 μL/well) are added to the plate. The plate is then incubated for 30 mins at 37° C. in 5% CO2, then for 30 mins at ambient temperature and placed into a FlexStation III reader.

The target of test [4] is T3, hOX2R (Homo sapiens, UniProt O43614).
T3 sequence (O43614 1-444): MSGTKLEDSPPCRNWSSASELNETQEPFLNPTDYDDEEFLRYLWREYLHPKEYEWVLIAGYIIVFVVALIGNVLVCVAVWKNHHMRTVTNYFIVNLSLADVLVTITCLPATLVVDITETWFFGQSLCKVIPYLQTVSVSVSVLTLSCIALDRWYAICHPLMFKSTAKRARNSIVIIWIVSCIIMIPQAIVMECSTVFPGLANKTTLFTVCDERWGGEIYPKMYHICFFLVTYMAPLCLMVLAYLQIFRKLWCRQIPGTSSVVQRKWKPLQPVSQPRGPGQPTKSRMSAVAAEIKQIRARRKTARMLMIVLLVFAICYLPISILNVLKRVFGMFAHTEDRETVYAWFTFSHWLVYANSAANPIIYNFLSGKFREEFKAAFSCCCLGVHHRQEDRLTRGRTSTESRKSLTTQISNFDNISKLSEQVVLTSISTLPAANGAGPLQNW
As to the kind of experiment: Intracellular calcium measurements using stable-replicating cells, Method A, OX2. The note with it: orexin-A at 4×EC50, * = single experiment, read-out: pIC50 OX2 (converted). How it is done:
as §1, §2, §3, §4

In test [5] the target is T3, hOX2R. As to the kind of experiment: Intracellular calcium measurements using stable-replicating cells, Method B (CHO cells, FLIPR Tetra), OX2. The note with it: orexin A at EC75, read-out: pIC50 OX2 (converted). How it is done:
as §1
Human OX1 or human OX2 receptor expressing CHO cells are plated into 384 well black, clear bottom, CellBIND plates at a seeding density of 10,000 cells/75 μL growth media. The seeded plates are incubated at 37° C. in air supplemented with 5% CO2 overnight.
The next day media is removed and replaced with 30 μL/well of cell loading buffer (a vial of Calcium 5 is solubilized in 20 mL of assay buffer) and the cells incubated for 1 hr at 37° C. The serially diluted test compounds (10 μL/well) are added to the cell plate by the FLIPR Tetra and the addition is monitored for 5 mins by the instrument. The cell plate is then removed and incubated for additional 25 mins in a humidified incubator at […] prior to being placed back into the FLIPR Tetra. Finally 10 μL of orexin A in assay buffer +0.1% (w/v) bovine serum albumin is dispensed by the FLIPR Tetra at an EC75 concentration determined for each assay run. Fluorescence is measured at excitation and emission wavelengths of 485 nm and 525 nm respectively and data analyzed using GraphPad Prism for the EC75 value of orexin A and Aplus to determine an IC50 value for each test compound.

Test [6] addresses T2, hOX1R. As to the kind of experiment: Intracellular calcium measurements using division-arrested cells, OX1. The settings on record: agonist orexin A at 2×EC50, * = single experiment, otherwise average of at least two, read-out: pIC50 OX1 (converted). Summed up: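 Division-arrested cells expressing human OX1 or OX2 were seeded for 16 h, then loaded with Calcium 5 dye plus probenecid for 1 h at 37 °C. Compounds in HEPES-buffered HBSS with 0.1% BSA, pH 7.4, top final concentration 10 μM, were added 10 min before the FlexStation calcium read.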

Take `CC[C@@H](CNc1ccc(Cl)cn1)NC(=O)c1cc(C)ccc1N1CCN(C)CC1` [(S)—N-(1-((5-chloropyridin-2-yl)amino)butan-2-yl)-5-methyl-2-(4-methylpiperazin-1-yl)benzamide]: the IC50 in test [1] was above 10000 nM.
Same read-out and setting: for `CC[C@@H](CNc1ncc(C(F)(F)F)cn1)N(C)C(=O)c1nc(C(C)(C)O)ccc1-n1nccn1` [(S)-6-(2-hydroxypropan-2-yl)-N-methyl-3-(2H-1,2,3-triazol-2-yl)-N-(1-((5-(trifluoromethyl)pyrimidin-2-yl)amino)butan-2-yl)picolinamide] the value was above 10000 nM; for `CCOC(=O)c1ccc(NC[C@H](CC)N(C)C(=O)c2cc(Cl)ccc2-n2nccn2)nc1` [(S)-ethyl 6-((2-(5-chloro-N-methyl-2-(2H-1,2,3-triazol-2-yl)benzamido)butyl)amino) nicotinate], above 10000 nM.
Same read-out and setting: for `CC[C@@H](COc1nc2ccccc2n1C)N(C)C(=O)c1cc(C)ccc1-n1nccn1` [(S)—N,5-dimethyl-N-(1-((1-methyl-1H-benzo[d]imidazol-2-yl)oxy)butan-2-yl)-2-(2H-1,2,3-triazol-2-yl)benzamide] the value was above 10000 nM.
For `CC[C@@H](CNc1ccc2ccccc2n1)N(C)C(=O)c1cc(Cl)ccc1-n1nccn1` [Example 77, (S)-5-chloro-N-methyl-N-(1-(quinolin-2-ylamino)butan-2-yl)-2-(2H-1,2,3-triazol-2-yl)benzamide], the IC50 was 0.794 nM in test [2], 7.94 nM in test [3], 1260 nM in test [4] and 501 nM in test [5].
With `CC[C@@H](CNc1ccc(Cl)cn1)NC(=O)c1cc(C)ccc1N1CCOCC1` [(S)—N-(1-((5-chloropyridin-2-yl)amino)butan-2-yl)-5-methyl-2-morpholinobenzamide], in test [1], the IC50 was above 10000 nM.
In the case of `CC[C@@H](CNc1ncc(C(F)(F)F)cn1)N(C)C(=O)c1cc(Cl)cc2cccnc12` [Example 80, (S)-6-chloro-N-methyl-N-(1-((5-(trifluoromethyl)pyrimidin-2-yl)amino)butan-2-yl)quinoline-8-carboxamide], the IC50 was 10 nM in test [2], 25.1 nM in test [3], 200 nM in test [4] and 316 nM in test [5].
As to `Cc1ccc(-n2nccn2)c(C(=O)N(C)C(CNc2ccc(Cl)cn2)C2COC2)c1` (stereo not shown) [N-(2-((5-chloropyridin-2-yl)amino)-1-(oxetan-3-yl)ethyl)-N,5-dimethyl-2-(2H-1,2,3-triazol-2-yl)benzamide], in test [1], the IC50 is above 10000 nM.
As for `CC[C@@H](CNc1cnc(C(F)(F)F)cn1)N(C)C(=O)c1nc(C)ccc1-n1nccn1` [Example 47, (S)—N,6-dimethyl-3-(2H-1,2,3-triazol-2-yl)-N-(1-((5-(trifluoromethyl)pyrazin-2-yl)amino)butan-2-yl)picolinamide], the IC50 in test [2] is 2.51 nM; in test [3], 3.98 nM; in test [4] it was above 7940 nM; in test [5], above 3980 nM; in test [6], 31.6 nM.
With `CC[C@@H](CNc1ccc2ccccc2n1)N(C)C(=O)c1nc(C)ccc1-n1nccn1` [Example 75, (S)—N,6-dimethyl-N-(1-(quinolin-2-ylamino)butan-2-yl)-3-(2H-1,2,3-triazol-2-yl)picolinamide], the IC50 in test [2] is 1.26 nM; in test [3], 6.31 nM; in test [4] it was 2000 nM; in test [5], 2510 nM.
On to `CC[C@@H](CNc1ncc(C(F)(F)F)cn1)N(C)C(=O)c1nc(N(C)C)cc2ccccc12` [Example 81, (S)-3-(dimethylamino)-N-methyl-N-(1-((5-(trifluoromethyl)pyrimidin-2-yl)amino)butan-2-yl)isoquinoline-1-carboxamide], for which the IC50 in test [2] is 5.01 nM; in test [3], 39.8 nM; in test [4], 251 nM; in test [5], 251 nM.
Consider `CC[C@@H](CNc1ccc(Cl)cn1)N(C)C(=O)c1nc(C)ncc1-n1nccn1` [(S)—N-(1-((5-chloropyridin-2-yl)amino)butan-2-yl)-N,2-dimethyl-5-(2H-1,2,3-triazol-2-yl)pyrimidine-4-carboxamide], for which the IC50 in test [1] is above 10000 nM.
For the molecule `CC[C@@H](CNc1ncc(C(F)(F)F)cn1)N(C)C(=O)c1nc(C)ccc1-n1nccn1` [Example 46, (S)—N,6-dimethyl-3-(2H-1,2,3-triazol-2-yl)-N-(1-((5-(trifluoromethyl)pyrimidin-2-yl)amino)butan-2-yl)picolinamide], the IC50 in test [2] is 3.16 nM; in test [3], 31.6 nM; in test [4] it was above 10000 nM; in test [5] it was above 10000 nM; in test [6], 20 nM.
Regarding `CC[C@@H](CNc1ncc(C(F)(F)F)cn1)N(C)C(=O)c1cccc2cccnc12` [Example 79, (S)—N-methyl-N-(1-((5-(trifluoromethyl)pyrimidin-2-yl)amino)butan-2-yl)quinoline-8-carboxamide], the IC50 was 79.4 nM in test [2], 100 nM in test [3], 1580 nM in test [4] and 2510 nM in test [5].
Consider `CC[C@@H](CNC(=O)c1ccccn1)N(C)C(=O)c1cc(Cl)ccc1-n1nccn1` [(S)—N-(2-(5-chloro-N-methyl-2-(2H-1,2,3-triazol-2-yl)benzamido)butyl)picolinamide], for which the IC50 in test [1] was above 10000 nM.
For `CC[C@@H](CNc1nc2ccccc2s1)N(C)C(=O)c1nc(C)ccc1-n1nccn1` [Example 63, (S)—N-(1-(benzo[d]thiazol-2-ylamino)butan-2-yl)-N,6-dimethyl-3-(2H-1,2,3-triazol-2-yl)picolinamide], the IC50 is 1.58 nM in test [2], 1.58 nM in test [3], 1260 nM in test [4] and 501 nM in test [5].
Take `CC[C@@H](CNc1ncc2ccccc2n1)N(C)C(=O)c1nc(C)ccc1-n1nccn1` [Example 61, (S)—N,6-dimethyl-N-(1-(quinazolin-2-ylamino)butan-2-yl)-3-(2H-1,2,3-triazol-2-yl)picolinamide]: the IC50 in test [2] is 2.51 nM; in test [3], 3.98 nM; in test [4] it was 1580 nM; in test [5], 3160 nM.
